Test results as given in patent US20070225351A1, “Methods and compositions for controlling body weight and appetite” (priority 2002, published 2007).
Like-named read-outs stand apart in the source and are kept apart here.

Experiments:
[1] = Effect on weight gain in male DIO rats; type: in vivo, rat
Experimental: Male DIO rats, weighing approximately 200 g each were housed singly in plastic cages with wood litter and free access to food and water in a vivarium maintained under a 12 hour light/dark cycle at 21±3°. After an acclimatization period of 1 week, the studies were initiated. During the study period, access to food and water was restricted for 3 hours per day (1000 to 1300 hrs). On day 0, the amount of food and water consumed was measured in all rats in the absence of any treatment. […] A cannabinoid receptor blocker, termed AM251, and an enantiomer of fenfluramine, termed d-FEN1, both of which are known to regulate the melanocortin pathways in animals, were also administered for comparison purposes. Test compounds or vehicle were then orally administered in a volume of 5 mL/kg 60 minutes before access to food and water (0900 hrs). Body weight was measured prior to and 18 hours after administration of the various compounds.

[2] = Toxicokinetic evaluation in rats; conditions: rat, in vivo
Experimental: For toxicokinetic evaluation, all animals were observed twice daily for mortality and moribundity. Blood samples were collected from three animals/sex/group at 0 (pre-dose), 1, 2, 4, 8 and 24 hours after dose administration on study days 0 and 87. All toxicokinetic animals were euthanized and discarded following the final blood collection (study day 88).

in vivo = type: in vivo; conditions: both sexes, beagle, dog, in vivo, po
Experimental: Eighteen male and eighteen female beagle dogs were received from Ridglan Farms, Mt. Horeb, Wis. […] Each group consisted of four males and four females. All animals/sex/group were scheduled for the primary necropsy at the end of the 13-week treatment period.
The animals were observed twice daily for mortality and moribundity. Clinical examinations were performed daily at the time of dosing and approximately 1-2 and approximately 3 hours following dose administration. Detailed physical examinations were performed weekly. Clinical pathology evaluations (hematology, serum chemistry and urinalysis) were performed prior to the initiation of dose administration (study week-1) and prior to the scheduled necropsy (study week 13). Individual body weights were recorded weekly, beginning approximately two weeks prior to test article administration (study week-2). Mean body weights and mean body weight changes were calculated for each corresponding interval. Final body weights (fasted) were recorded prior to the scheduled necropsy. […] Gross lesions were also examined from the 2.0 and 6.0 mg/kg/day groups.

[3] = female, Crl:CD(SD)IGS BR (Sprague-Dawley), po, 60 mg/kg/day
[4] = female, Crl:CD(SD)IGS BR, po, 10 mg/kg/day
[5] = female, Crl:CD(SD)IGS BR, po, 25 mg/kg/day
[6] = male, Crl:CD(SD)IGS BR, po, 10 mg/kg/day
[7] = male, Crl:CD(SD)IGS BR, po, 25 mg/kg/day
[8] = male, Crl:CD(SD)IGS BR, po, 60 mg/kg/day

Clc1ccc([C@]23CNCC2C3)cc1Cl (single isomer, unassigned; (+)) [(+)-1-(3,4-dichlorophenyl)-3-azabicyclo[3.1.0]hexane]
body weight gain compared to vehicle ([1]; oral 2, 4, 6, 20 and 40 mg/kg, 18 hours after administration): dose-dependently suppressed this body weight gain | effect on body weight compared with AM251 or d-FEN1 ([1]; oral doses of 20 and 40 mg/kg, 18 hours): significantly more effective than either AM251 or d-FEN1 | AUC(0-t) ([2]; Crl:CD(SD)IGS BR (Sprague-Dawley), male rats, 10 mg/kg/day oral, Day 87, read-out: AUC0-24 h): 8130 ng·h/mL | AUC(0-t) ([2]; Crl:CD(SD)IGS BR, female rats, 10 mg/kg/day oral, Day 87, read-out: AUC0-24 h): 14400 ng·h/mL | AUC0-24 h [2, 3]: 88137 ng·h/mL | AUC(0-t) ([2]; female, Crl:CD(SD)IGS BR (Sprague-Dawley), po, 60 mg/kg/day, AUC0-24 h): 54400 ng·h/mL | Cmax [2, 3]: 6600 ng/mL | Tmax [2, 3]: 2 h | AUC(0-t) ([2]; female, Crl:CD(SD)IGS BR, po, 10 mg/kg/day, AUC0-24 h): 10900 ng·h/mL | Cmax [2, 4]: 1390 ng/mL | Tmax [2, 4]: 1 h | AUC0-24 h [2, 5]: 30205 ng·h/mL | AUC(0-t) ([2]; female, Crl:CD(SD)IGS BR, po, 25 mg/kg/day, AUC0-24 h): 31000 ng·h/mL | Cmax [2, 5]: 2810 ng/mL | Tmax [2, 5]: 2 h | AUC(0-t) ([2]; male, Crl:CD(SD)IGS BR (Sprague-Dawley), po, 10 mg/kg/day, AUC0-24 h): 5940 ng·h/mL | Cmax [2, 6]: 863 ng/mL | Tmax [2, 6]: 2 h | AUC0-24 h [2, 7]: 21975 ng·h/mL | AUC(0-t) ([2]; male, Crl:CD(SD)IGS BR, po, 25 mg/kg/day, AUC0-24 h): 17400 ng·h/mL | Cmax [2, 7]: 2360 ng/mL | Tmax [2, 7]: 2 h | AUC0-24 h [2, 8]: 60093 ng·h/mL | AUC(0-t) ([2]; male, Crl:CD(SD)IGS BR, po, 60 mg/kg/day, AUC0-24 h): 36300 ng·h/mL | Cmax [2, 8]: 3680 ng/mL | Tmax [2, 8]: 1 h | NOAEL at 13 weeks (in vivo): 6 mg/kg/day
